Source: patent US9051240B2, “Substituted 2-[2-(phenyl) ethylamino] alkaneamide derivatives and their use as sodium and/or calcium channel modulators” (Newron Pharmaceuticals S.P.A., priority 2007, dated 2015)
Read-outs that look alike come from different tables or passages of the source.

Legend:
TTXs sodium channels = experiment: TTXs-sodium channel influx assay (fluorescence, ND7/23 cell line); type: cell-based, rat; conditions: ND7/23 cells, veratridine 100 μM; read-out: Na+ influx IC50
Protocol: ND7/23 rat dorsal root ganglion-derived cell line endogenously expresses a mixed population of TTXs sodium channels. These cells lack of TTXr sodium channels as shown by the absence of their respective transcripts.
ND7/23 cells were grown in DMEM supplemented with 10% FBS and 1 mM sodium piruvate. The cells were seeded at 50,000 cells/well on 96 poly-L-lysine-coated plates and further incubated for 18-24 h before use.
The Membrane Potential Kit Assay (Molecular Devices), based on a negatively charged fluorescent dye able to monitor changes in membrane potential caused by the sodium influx due to the channel opening, was used for the assay.
Cells were incubated with the dye loading for 30 minutes at 25° C. Then, 100 nM of the toxin Anemonia sulcata (used as enhancer of the channel opener response) alone or in the presence of TTX (as reference standard) or test compound were added for further 15 minutes.
The fluorescence (excitation:530 nm, emission: 565 nm wavelength) was measured before and after (40-45 s) the automated injection of the sodium channel opener veratridine (100 μM) using a Victor plate reader (Perkin Elmer).
(§1) The inhibition curves were calculated from 5 concentrations, each in triplicate, and the IC50 determined using linear regression analysis.

L-type calcium channels = experiment: Calcium channel influx assay (fluorescence, AtT20 cell line); type: cell-based, mouse; conditions: AtT20 cells, 100 mM KCl depolarization; read-out: Ca++ influx IC50
Protocol: AtT20/D16v-F2 mouse pituitary tumour cell line preferentially expresses L-type calcium channels.
AtT20 cells were grown in DMEM with 10% of FBS, 4 mM glutamine. The cells were seeded at 200,000 cells/well on 96 poly-L-lysine-coated plates and further incubated for 18-24 h, before use.
The Ca^++ Kit Assay (Molecular Devices), which is based on a fluorescent calcium indicator to detect the calcium influx determined by depolarizing conditions, was used for the assay.
Cells were incubated with the calcium dye loading for 30 min at 37° C. Then, ω-conotoxin alone (1 μM) or in presence of nifedipine (as reference standard) or test compound were added for further 15 min.
The fluorescence (excitation: 485-emission: 535 nm wavelength) was measured before and after (30-40 sec) the automated injection of 100 mM KCl depolarizing solution using a Victor plate reader (Perkin Elmer).
as §1

[1] = molecular target: Na+ currents in rat cortical neurons; experiment: Patch clamp evaluation of Na+ currents blockade in rat cortical neurons; type: cell-based
Protocol: Cortical neurons were prepared from embryonic Wistar rats (E17-E19). A female rat at date 17-19 of pregnancy was anesthetized and sacrificed. The fetuses (n=4-5) were dissected and placed in ice-cold Hank's solution (Hank's solution (Life tech.14170-088)+glucose 30%+Pen-Strep 100× (Life Tech. 15140-122) 100U-100 μg/ml and Hepes-NaOH 5 mM). The uterus and placenta were removed, the fetuses were decapitated and the heads were placed in ice-cold Hank's solution. Cells were counted and diluted in Neurobasal medium to a concentration of 400000 cells per poly-D-lysine 5 μg/ml treated Petri dish. Cortical neurons were used from day 6th till day 11th after plating, and once a week Neurobasal medium was changed. Experiments on cortical neurons were carried out using standard whole cell patch clamp methods (Hamill et al., Pfugers Arch., 1981 August, 391(12), 85-100). Membrane currents were recorded and filtered at 5 kHz with an Axon Axopatch 200B amplifier and data digitized with an Axon Digidata 1322A (Axon Instruments, CA, USA). Protocol playing and data acquisition were controlled online with Axon pClamp8 software. Measuring and reference electrodes were AgCl-Ag electrodes. A Sutter Instrument P-87 Puller (CA, USA) was used for pulling patch clamp pipettes with a resistance of 2-3 MΩ from Harward borosilicate glass tubes. Cells were continuously superfused with extracellular solutions, using a solution changer Biologic RSC-200. To test the effect of compounds on sodium currents in cortical neurons, cells were clamped at -90 mV, then a two step protocol was used to determine the voltage dependence of the block. […] Tonic block of resting and depolarized currents at a given drug concentration, was calculated as the difference between the peak Na^+ current in the control external bath solution and peak currents with the test substance divided by control peak. Drug concentration-inhibition curves were obtained by plotting tonic blocks in the resting and depolarized condition, versus drug concentrations. Dose-response curves were fitted to the tonic block data, according to the logistic equation: […] Control bath solution contained (mM): […] Internal pipette solution consisted of (mM): […] Compounds were dissolved as stock solutions (20 mM) in DMSO. They were diluted to the final concentrations in the external solution.

MAO-B = MAO-B (Rattus norvegicus (Rat), UniProt P19643); experiment: In vitro MAO-B enzyme activity assay (radioenzymatic, rat brain mitochondria); type: biochemical; conditions: 14C-PEA 0.5 μM
Chain of MAO-B (P19643 whole entry): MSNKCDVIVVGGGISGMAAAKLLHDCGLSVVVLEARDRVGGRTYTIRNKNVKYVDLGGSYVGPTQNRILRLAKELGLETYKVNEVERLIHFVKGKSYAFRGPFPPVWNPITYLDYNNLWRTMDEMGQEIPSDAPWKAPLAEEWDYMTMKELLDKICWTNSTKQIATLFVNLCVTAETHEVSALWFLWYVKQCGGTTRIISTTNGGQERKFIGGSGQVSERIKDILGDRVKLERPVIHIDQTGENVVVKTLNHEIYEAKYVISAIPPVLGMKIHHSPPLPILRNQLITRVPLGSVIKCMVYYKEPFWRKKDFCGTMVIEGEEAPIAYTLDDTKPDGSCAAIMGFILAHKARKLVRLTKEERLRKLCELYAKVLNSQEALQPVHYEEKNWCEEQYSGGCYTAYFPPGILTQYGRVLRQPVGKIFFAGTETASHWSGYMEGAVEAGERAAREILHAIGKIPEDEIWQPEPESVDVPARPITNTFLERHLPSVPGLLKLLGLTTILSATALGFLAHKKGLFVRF
Protocol: Male Wistar rats (Harlan, Italy weighing 175-200 g) were sacrificed under light anaesthesia and brains were rapidly removed and homogenized in 8 volumes of ice-cold 0.32 M sucrose buffer containing 0.1 M EDTA, pH 7.4. The crude homogenate was centrifuged at 2220 rpm for 10 minutes and the supernatant recovered. The pellet was homogenized and centrifuged again. The two supernatants were pooled and centrifuged at 9250 rpm for 10 minutes at +4° C. The pellet was resuspended in fresh buffer and centrifuged at 11250 rpm for 10 minutes at +4° C. The resulting pellet was stored at −80° C. The enzyme activity was assessed with a radioenzymatic assay using the substrate ^14C-phenylethylamine (PEA) specific for MAO-B. The mitochondrial pellet (500 μg protein) was resuspended in 0.1 M phosphate buffer (pH 7.4). 200 μl of the suspension were added to a 50 μl solution of the test compound or buffer, and incubated for 30 min at 37° C. (preincubation) then the substrate (50 μl) was added. The incubation was carried out for 10 minutes at 37° C. (^14C-PEA, 0.5 μM). The reaction was stopped by adding 0.2 ml of perchloric acid. After centrifugation, the deaminated metabolites were extracted with 3 ml of toluene and the radioactive organic phase containing the neutral and/or acidic metabolites formed as a result of MAO-B activity was measured by liquid scintillation spectrometry at 90% efficiency. The MAO-B activity was expressed as nmoles of substrate transformed/mg protein/min.

mice [2] = experiment: Formalin test; type: in vivo; conditions: Mus musculus, po
Protocol: According to a modified protocol from Rosland et al. (Rosland J. H., Tjolsen A., Maehle B., Hole K. Pain (1990) 42: 235-242), mice were injected subcutaneously (s.c.) with 20 μl of 2.7% solution of formalin into the plantar surface of left hindpaw and placed immediately into clear PVC observation chambers (23×12×13 cm). Pain behaviour was quantified by counting the cumulative licking time (s) of the injected paw. Measurements were taken during the early phase (0-5 min) and late phase (20-40 min) after formalin injection (Tjolsen A., Berge O. G., Hunskaar S., Rosland J. H., Hole K. Pain (1992) 51: 5-17).
The test compound was administered p.o. or s.c. 5-45 minutes before formalin injection in a volume of 10 ml/kg body weight to groups of 10 mice per dose. Control group was treated with vehicle.

mice [3] = experiment: Maximal electroshock test (MES) in mice; type: in vivo; conditions: Mus musculus, iv; mice, MES, i.v.; read-out: MES ED50 mg/kg i.v.
From the text: The maximal electroshock test (MES) is used commonly in the screening of anti-epileptic drugs in rodent models.
Animals and Apparatus: Male CD1 mice weighing 25 g were used. The procedure described by White et al. (White H. S., Woodhead J. H., Franklin M. R., Swinyard E. A., and Wolf H. H. Antiepileptic Drugs (1995) 4th ed: 99-110, Raven Press, Ltd., New York) was followed. An Ugo Basile electroconvulsive generator (Model ECT UNIT 7801) was used to deliver an electrical stimulus sufficient to produce a hindlimb tonic extensor response in at least 97% of control animals. The stimulus was delivered intra-aurally through clip electrodes in mice (0.7 s of a 40 mA shock, with a pulse train of 80 Hz having a pulse duration of 0.4 ms). The acute effect of compounds administered intraperitoneally (i.p.), subcutaneously (s.c.), intravenously (i.v.) or orally (p.o.) 5-120 minutes before MES induction were examined and compared with a vehicle control group. Ten mice were studied per group. Complete suppression of the hindlimb tonic extensor component of seizures was taken as evidence of anticonvulsant activity.
The compounds of the invention were administered p.o. or i.v., at the doses of 0.1-100 mg/kg.

C[C@H](NCc1ccc(OCc2cccc(F)c2)cc1)C(N)=O [safinamide, (S)-(+)-2-[4-(3-fluorobenzyloxy)-benzylamino]-propanamide]
IC50 (TTXs sodium channels): 7.4 µM | IC50 (L-type calcium channels): 33 µM | Ki ([1]; calculated from Kr and Kdep, read-out: Ki (apparent affinity for the inactivated state)): 3.6 µM | IC50 ([1]; preconditioning potential -110 mV, read-out: IC50 resting (Kr)): > 100 µM | IC50 ([1]; preconditioning potential ~-50 mV, read-out: IC50 depolarized): 7 µM | IC50 ([1]; resting condition, figure in parentheses after >100, read-out: IC50 resting (Kr), value in parentheses): 180 µM | IC50 (MAO-B): 0.1 µM | ED50 (mice [2]): 69.4 mg/kg | ED50 (mice [3]): 4 mg/kg
